Assay results reported in PMC3265452 (PLoS Neglected Tropical Diseases, 2012).
Structures can show the parent of a compound that is named as a salt.

Biological target: AaDOP2 (Aedes aegypti, UniProt H6D5H2)
Test: AaDOP2 antagonist screen of the LOPAC1280 library (HEK-CRELuc-Aadop2 cells, luminescence)
Type: cell-based
Conditions: not given

Chain of AaDOP2 (H6D5H2 1-476): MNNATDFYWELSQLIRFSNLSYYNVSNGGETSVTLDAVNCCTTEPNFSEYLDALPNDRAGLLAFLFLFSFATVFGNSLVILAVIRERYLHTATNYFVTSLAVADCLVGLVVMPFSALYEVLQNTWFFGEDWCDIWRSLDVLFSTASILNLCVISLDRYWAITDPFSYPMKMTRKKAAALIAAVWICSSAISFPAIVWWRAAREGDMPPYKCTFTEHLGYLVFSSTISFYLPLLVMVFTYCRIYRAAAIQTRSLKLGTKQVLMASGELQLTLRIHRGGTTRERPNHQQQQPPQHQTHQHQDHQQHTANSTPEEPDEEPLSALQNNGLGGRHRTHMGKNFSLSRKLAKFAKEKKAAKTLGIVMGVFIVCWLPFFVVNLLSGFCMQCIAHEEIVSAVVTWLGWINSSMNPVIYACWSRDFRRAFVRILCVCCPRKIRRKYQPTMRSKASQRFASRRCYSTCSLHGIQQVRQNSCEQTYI

In order of falling “Compound effect (percent receptor signaling in presence of test compound, relative lux units relative to the SCH23390 control)” value:
1. CCOC(=O)c1cnc2c(cnn2CC)c1NN=C(C)C [Compound 476, Etazolate hydrochloride]  136
2. NC(CCP(=O)(O)O)C(=O)O (racemic) [Compound 31, (±)-2-Amino-4-phosphonobutyric acid]  124
3. CCCCCN(CCCCC)C(=O)C(CCC(=O)O)NC(=O)c1ccc(Cl)c(Cl)c1 (stereo not drawn) [Compound 722, Lorglumide sodium]  122
4. C[C@]12CC[C@H](O)CC1=CC[C@@H]1[C@@H]2CC[C@]2(C)C(=O)CC[C@@H]12 (relative stereo) [Compound 381, trans-Dehydroandrosterone]  114
5. C[C@H](Cc1ccccc1)Nc1ncnc2c1ncn2[C@@H]1O[C@H](CO)[C@@H](O)[C@H]1O [Compound 944, R(-)-N6-(2-Phenylisopropyl)adenosine]  112
6. COc1cc(OC)cc(C(CNc2ncnc3c2ncn3[C@@H]2O[C@H](CO)[C@@H](O)[C@H]2O)c2ccccc2C)c1 (stereo partly drawn) [Compound 455, DPMA]  110
7. Nc1cc(N2CCCCC2)nc(N)[n+]1[O-] [Compound 767, Minoxidil]  110
8. O=C1CCc2cc(OCCCCc3nnnn3C3CCCCC3)ccc2N1 [Compound 222, Cilostazol]  108
9. Cc1[nH]c(=O)c(C#N)cc1-c1ccncc1 [Compound 770, Milrinone]  104
10. Cl.NC1(C(=O)O)CC1 [Compound 16, 1-Aminocyclopropanecarboxylic acid hydrochloride]  104
11. OC[C@H]1O[C@@H](n2cnc3c(NCCc4ccccc4)ncnc32)[C@H](O)[C@@H]1O [Compound 1007, N6-2-Phenylethyladenosine]  104
12. CNC(=O)OCC[N+](C)(C)C [Compound 824, Methylcarbamylcholine chloride]  103
13. C/C=C(/C)C(=O)O[C@H]1C(C)=C2[C@H]([C@@H]1OC(=O)CCCCCCC)[C@@](C)(OC(C)=O)C[C@H](OC(=O)CCC)[C@@]1(O)[C@H]2OC(=O)[C@@]1(C)O [Compound 1215, Thapsigargin]  103
14. CC(=N)NCCC[C@H](N)C(=O)O.Cl [Compound 661, L-N5-(1-Iminoethyl)ornithine hydrochloride]  102
15. CP(=O)(O)CCCN.Cl [Compound 138, SKF 97541 hydrochloride]  101
16. Cl.c1ccc2sc(C3(N4CCCCC4)CCCCC3)cc2c1 [Compound 207, BTCP hydrochloride]  100
17. C[C@]12CCC(=O)C=C1CC[C@@H]1[C@@H]2CC[C@@]2(C)[C@H]1CC[C@]2(O)C(=O)CO [Compound 1040, Cortexolone]  99
18. Cl.Cl.Clc1cccc(N2CCNCC2)c1 [Compound 273, 1-(3-Chlorophenyl)piperazine dihydrochloride]  99
19. CCn1cnc2c(Nc3cccc(Cl)c3)nc(N[C@@H]3CCCC[C@@H]3N)nc21.Cl [Compound 246, CGP-74514A hydrochloride]  99
20. CC1CCN(CC[C@H]2CCCN2S(=O)(=O)c2cccc(O)c2)CC1.Cl [Compound 1106, SB 269970 hydrochloride]  98
21. Nc1ncnc2c1ncn2[C@@H]1O[C@H](COP(=O)(O)CP(=O)(O)OP(=O)([O-])[O-])[C@H](O)C1O.[Li+].[Li+] (stereo partly drawn) [Compound 788, alpha,beta-Methylene adenosine 5'-triphosphate dilithium]  97
22. CCN(CC)CCNC(=O)c1cc(S(C)(=O)=O)ccc1OC [Compound 1145, Tiapride hydrochloride]  96
23. Cl.NCC(O)C1CCCCCCC1 (stereo not drawn) [Compound 331, 2-Cyclooctyl-2-hydroxyethylamine hydrochloride]  95
24. NC(=O)c1ncn([C@@H]2O[C@H](CO)[C@@H](O)[C@H]2O)c1O [Compound 755, Mizoribine]  94
25. CC(=O)OCC1=C(C(=O)O)N2C(=O)[C@@H](NC(=O)Cc3cccs3)[C@H]2SC1 [Compound 261, Cephalothin sodium]  92
26. C[C@]12CC[C@@H]3c4ccc(O)cc4CC[C@H]3[C@@H]1CCC2=O [Compound 500, Estrone]  91
27. O=C(O)/C=C/C(=O)O.O=C(O)/C=C/C(=O)O.O=C(O)/C=C/C(=O)O.O=C1CCCN1CC#CCN1CCCC1.O=C1CCCN1CC#CCN1CCCC1 [Compound 908, Oxotremorine sesquifumarate salt]  88
28. CCN1C(=O)C=CC1=O [Compound 490, N-Ethylmaleimide]  87
29. N=C(N)N1CCc2ccccc2C1 [Compound 361, Debrisoquin sulfate]  86
30. Nc1c2c(nc3ccccc13)CCCC2O.O=C(O)/C=C\C(=O)O (stereo not drawn) [Compound 587, Hydroxytacrine maleate]  86
31. C[N+](C)(C)CC(=O)O [Compound 170, Betaine hydrochloride]  86
32. O=P(O)(O)C(Cl)(Cl)P(=O)(O)O [Compound 384, Clodronic acid]  83
33. NNC(=O)c1ccc(O)cc1 [Compound 617, 4-Hydroxybenzhydrazide]  78
34. C=CCN1CC[C@]23c4c5ccc(O)c4O[C@H]2C(=O)CC[C@@]3(O)[C@H]1C5 [Compound 867, Naloxone hydrochloride]  75
35. CCN(CC)CC.Nc1ncnc2c1ncn2C1OC2COP(O)(=S)O[C@@H]2[C@@H]1O (stereo partly drawn) [Compound 134, Rp-cAMPS triethylamine]  67
36. O=c1[nH]c2ccccc2n1C1CCN(CCCC(c2ccc(F)cc2)c2ccc(F)cc2)CC1 [Compound 927, Pimozide]  61
37. COC(=O)c1c(-c2cc(OC)c(OC)c(OC)c2)c2ccnc(OCc3ncccn3)c2c(=O)n1Cc1ccnc(C)c1 [Compound 1210, T-0156]  56
38. O=C1NCN(c2ccccc2)C12CCN(CCCC(c1ccc(F)cc1)c1ccc(F)cc1)CC2 [Compound 540, Fluspirilene]  53
39. Clc1ccc(C(c2ccc(Cl)cc2)n2cc[n+](CC(OCc3ccc(Cl)cc3Cl)c3ccc(Cl)cc3Cl)c2)cc1 (stereo not drawn) [Compound 252, Calmidazolium chloride]  44

Same assay, conditions: 10 µM compound, 300 nM dopamine, 2 hr

In the case of `CN1CCN(CC/C=C2/c3ccccc3Sc3ccc(S(=O)(=O)N(C)C)cc32)CC1.Cl` [Compound 1147, Thiothixene hydrochloride], the “% of the SCH23390 effect (percent inhibition of receptor response relative to the SCH23390 control)” value is reported as 86%.

Same assay, conditions: 10 µM compound, 300 nM dopamine, 2 hr; hit = compound effect <20

In order of rising “Compound effect (percent receptor signaling in presence of test compound, relative lux units relative to the SCH23390 control)” value:
1. CN1CCN(CC/C=C2/c3ccccc3Sc3ccc(S(=O)(=O)N(C)C)cc32)CC1.Cl [Compound 1147, Thiothixene hydrochloride]  14%
2. (±)-Pindobind [Compound 1010]  65%
3. CC(O)C(C)OC(=O)[C@@H]1C[C@@H]2c3cccc4c3c(cn4C(C)C)C[C@H]2N(C)C1.O=C(O)/C=C\C(=O)O (stereo partly drawn) [Compound 721, LY-53,857 maleate]  73%
4. Nc1ncnc2c1ncn2[C@@H]1O[C@H](C(=O)NC2CC2)[C@@H](O)[C@H]1O [Compound 282, 5'-(N-Cyclopropyl)carboxamidoadenosine]  82%
5. Ceramide [Compound 235]  87%
6. Cl.NCCCCCCNS(=O)(=O)c1cccc2c(Cl)cccc12 [Compound 40, W-7 hydrochloride]  87%
7. COc1cc2c(CCNC(C)=O)c[nH]c2cc1Cl [Compound 218, 6-Chloromelatonin]  90%
8. Cl.NCC(O)c1cc(O)c(O)cc1F (stereo not drawn) [Compound 197, 6-Fluoronorepinephrine hydrochloride]  90%
9. COc1ccc(CCN(C)CCc2ccc(OC)c(OC)c2)cc1OC.Cl [Compound 1274, YS-035 hydrochloride]  93%
10. CN(C)C(=O)N=NC(=O)N(C)C [Compound 376, N,N,N',N'-Tetramethylazodicarboxamide]  93%
11. CC(C)NNC(=O)c1ccncc1.O=P(O)(O)O [Compound 657, Iproniazid phosphate]  97%
